Laboratory results published in patent US20220160688A1, “INHIBITION OF NAMPT AND/OR SARM1 FOR THE TREATMENT OF AXONAL DEGRADATION” (THE JOHNS HOPKINS UNIVERSITY, priority 2019, published 2022).
“Also recorded” adds a separate entry of the source.

Experiments:
[1] = test system: Mouse dorsal root ganglion (DRG) cells; test: Microfluidic based axon degeneration assay (axotomy, degeneration index); assay type: cell-based; details: for efficacy against Wallerian degeneration compared with FK866: tested at different concentrations; for Optimized Concentration used (from dose response curves): tested 2 hours following axotomy
Method: A poly-dimethylsiloxane (PDMS)-based microfluidic device described by Hosmane and colleagues was used for these experiments (see, FIG. 16) (see, Hosmane, et al., Lab Chip 2010, 10, 741-747). This device provisions a perikaryal compartment where nerve cells are first placed and a juxtaposed array of 200 microchannels towards which axons grow and through which they traverse to reach a third axonal compartment. Mouse dorsal root ganglion (DRG) cells were prepared from E12-13 embryos and plated to the perikaryal compartment. After 6-7 days of culture at 37° C. and 5% CO2, axons were cut using a razor blade with vehicle or reagents. Images of the axonal compartment were taken at various time intervals at 20× magnification. Images were then analyzed for degeneration index (DI) which indicates percentage of fragmented axons over total axonal area, and drug-treated axons were compared to vehicle treated or uninjured axons. Live time-lapse images were taken as needed.

[2] = test system: IA-injured Thy1-eYFP-H mice; test: CLARITY-based counts of axonal lesions in the CST after impact acceleration (IA) injury; assay type: in vivo, mouse; details: FK866 10 mg/kg i.p. immediately after injury then every 6 h, vs vehicle
Text: IA injury was produced under gas anesthesia with 2% isoflurane. Under aseptic conditions and with the subject in a small-animal stereotactic frame, a 5-mm-diameter steel disc was glued on the exposed cranium between bregma and lambda to prevent skull fracture. The mouse was then placed prone on a foam bed under a hollow Plexiglas tube and secured with tape as described previously (see, Xu L, (2016) Exp Neurol 275:436-449). Injury was produced by dropping a brass weight from a height of 1 m through the Plexiglas tube onto the disk. In all cases except the impact dose-response study outlined below, that weight was 60 g. The foam bed was pulled immediately at the rebound of the weight off the metal disc, such as to prevent a second impact. The metal disc was then removed, scalp incision was closed with surgical staples, and the animal returned to cage for full recovery. Subjects with skull fractures confirmed with a surgical microscope were excluded from the study. […]
For 3D visualization and quantitative analysis of axonal injury of cleared brainstems, we used the software suite Imaris (Bitplane). […] For the detection and quantification of axonal swellings based on YFP and APP, the spot detection function for the whole CST volume from the pons to the pyramidal decussation or cervical spinal cord was used. […]

[3] = test system: mice injured with impact-acceleration; test: Pellet-reaching task after impact-acceleration traumatic brain injury; assay type: in vivo, mouse; details: drug administered continuously for 14 days post injury (osmotic pump); vs vehicle-treated mice
Method: Experiments were conducted to characterize the effects of SARM1 deletion or pharmacological SARM1 blockade on corticospinal-dependent motor deficits after traumatic brain injury (impact-acceleration). This was tested on the pellet-reaching task, i.e. the golden-standard to assess skilled function of the forelimbs in rodents relevant to a similar task used to assess fine motor function in humans. Specifically, experiments trained mice for 2 weeks before TBI in order to reach peak performance in the task. At that point the trained mice were injured with impact-acceleration. Experiments next measured their performance every day for two weeks post injury and comparisons were made between groups of mice administered FK866 and vehicle treated mice (control group).
Mice were placed under food restriction or 2 days to lose approximately 10% of their body weight. Following this, the shaping phase of the experiment was initiated: two mice were placed in the training chamber comprised of a clear Plexiglas chamber with ample food for 20 minutes for the first day, whereas one mouse was placed in the same chamber on day 2. The training chamber has a single slit through which the mouse can retrieve a pellet of food placed on the outside right in front of the slit. […] Retrieval attempts were recorded and characterized as successful only if a mouse retrieved the pellet and put it in its mouth. […]

With `N#CN=C(NCCCCCCOc1ccc(Cl)cc1)Nc1ccncc1` [CHS-828] the “efficacy against Wallerian degeneration compared with FK866” value (shortened to “efficacy … compared with FK866”) ([1]; axotomized DRG axons) was “comparably strong efficacy” and the “Optimized Concentration used (from dose response curves)” value (“Optimized Concentration used” below) [1] was 250 nM.

For `O=C(/C=C/c1cccnc1)NCCCCC1CCN(C(=O)c2ccccc2)CC1` [FK866], the “optimal therapeutic window of treatment onset” value ([1]; FK866 given at 0, 2, 4, 6 hours following injury) was “within two to six hours of injury”, the “delay of further fragmentation” value ([1]; axotomized DRG axons, treatment after the onset of visible fragmentation) was “still effective in delaying further fragmentation” and the “protection against Wallerian degeneration (degeneration index)” value ([1]; axotomized DRG axons, treatment at 2 hours post-injury) was “Maximum protection against WD”. For the same compound, the “Optimized Concentration used” value [1] was 100 nM, the “number (density) of axonal lesions per anatomical segment (CST×RST, pyramidal decussation, cervical cord)” value ([2]; 24 h after injury) was “significantly lower number of axonal lesions” and the “total number of axonal lesions in the CST from the pons to cervical spinal cord” value ([2]; counted 24 h after injury, 10 mg/kg) was “significantly lower number of axonal lesions; also recorded: smaller number of axonal lesions”. The “skilled motor function (pellet-reaching performance)” value [3] was “significant preservation of skilled motor function; also recorded: maintain their pellet-reaching skill”.

In the case of `O=C(CCCCCCCn1cc(-c2cccnc2)nn1)Nc1ccccc1-c1ccccc1` [GPP78], the “efficacy … compared with FK866” value ([1]; axotomized DRG axons) was “comparably strong efficacy” and the “Optimized Concentration used” value [1] was 1000 nM.

With `NC(=O)c1ccc[n+]([C@@H]2O[C@H](CO)[C@@H](O)[C@H]2O)c1` [NAR, nicotinamide riboside] the “effect of added NAR on the protective effect of FK866” value ([1]; FK866 and/or NAR at the time of injury) was “further augmented the protective effect of FK866”.

`NC(=O)c1ccc[n+]([C@@H]2O[C@H](COP(=O)([O-])O)[C@@H](O)[C@H]2O)c1` [NMN, nicotinamide mononucleotide] was tested, and the “effect of added NMN on the protection by NAMPT inhibition (FK866)” value ([1]; FK866 at time of injury, NMN added 0, 2, 4 hours post axotomy) was “reversed”.

With `CC(C)(C)c1ccc(S(=O)(=O)NCc2ccc(C(=O)Nc3cccnc3)cc2)cc1` [STF31] the “efficacy … compared with FK866” value ([1]; axotomized DRG axons) was “comparably strong efficacy” and the “Optimized Concentration used” value [1] was 2000 nM.

`Cc1ccc(S(=O)(=O)Cc2nc(-c3ccc(C(=O)NCc4cccnc4)cc3)oc2C)cc1` [STF118804] was tested, and the “efficacy … compared with FK866” value ([1]; axotomized DRG axons) was “comparably strong efficacy” and the “Optimized Concentration used” value [1] was 250 nM.
